Data taken from patent publication EP4755880A1, “SUBSTITUTED NITROGEN-CONTAINING BICYCLIC COMPOUND AND USE THEREOF” (Sunshine Lake Pharma Co., Ltd., priority 2023, dated 2025).

What was measured:
in vivo [1] = details: SD, rat
Experimental: (§1) The compounds of the present invention were administered to test animals in the form of 5% DMSO + 30% PEG400 + 65% physiological saline, 10% DMSO + 10% Kolliphor HS15 + 80% Saline, 10% DMSO + 89% (25% SBE-B-CD) + (2% HCl), 20% PEG400 + 80% sterile water for injection, or 10% DMA+ 10% HS15 + 30% PEG400 + 50% sterile aqueous solution for injection. Animals were fasted for 12 hours before administration but had free access to water. For the intravenous administration group, the dose was 1 mg/kg. Blood samples (approximately 0.15 mL) were collected intravenously at the following time points after administration: 0.083, 0.25, 0.5, 1.0, 2.0, 4.0, 6.0, 8.0 and 24 h (dogs) or 0.083, 0.25, 0.5, 1.0, 2.0, 5.0, 7.0 and 24 h (mice and rats) or 0.083, 0.25, 0.5, 1.0, 2.0, 6.0, 8.0 and 24 h (monkeys). EDTA-K2 was pre-added to the blood collection tube as an anticoagulant. The blood samples were centrifuged at 12,000 rpm for 2 minutes, and plasma was collected and stored at -20 °C or - 70 °C. For the gavage administration group, the dosage was 1 mg/kg (mice, dogs, and monkeys) or 5 mg/kg (rats). After administration, venous blood samples (approximately 0.15 mL) were collected at the following time points: 0.25, 0.5, 1.0, 2.0, 4.0, 6.0, 8.0, and 24 h (dogs) or 0.25, 0.5, 1.0, 2.0, 5.0, 7.0, and 24 h (mice and rats) or 0.25, 0.5, 1.0, 2.0, 6.0, 8.0, and 24 h (monkeys). EDTA-K2 was pre-added to the blood collection tube as an anticoagulant. The blood samples were centrifuged at 12,000 rpm for 2 minutes, and plasma was collected and stored at -20 °C or -70 °C.
(§2) The collected plasma samples were processed (frozen plasma was thawed at room temperature, vortexed for 15 s to mix, 10-20 µL of plasma was taken, 120-150 µL of acetonitrile solution containing internal standard was added, vortexed for 5 min to mix, centrifuged at 4,000 rpm for 5 min, 100 µL of supernatant was taken, and 120-150 Ml/water (v/v = 1/1) was added and mixed). The concentration of compounds in the plasma was then analyzed by LC-MS/MS.
(§3) Table D Pharmacokinetic parameters of compounds of the present invention in SD rats

in vivo [2] = details: BALB/c, mouse
Experimental: as §1, §2

DLD-1 BRCA2(-/-) cells = experiment: Inhibition of proliferation of DLD-1 BRCA2(-/-) cells (CTG method); type: cell-based; details: Homo sapiens, DLD-1, 168 h; 7 days incubation, CellTiter-Glo
How it was run: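 DLD-1 BRCA2(-/-) cells, 1,000 per well, attached overnight, then exposed to compound at final 10000 to 0.152 nM (4-fold series) in triplicate for 7 days at 37 °C, 5% CO2. Viability by CellTiter-Glo luminescence; IC50 for proliferation inhibition from a fitted curve.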

MDA-MB-436 cells = experiment: Inhibition of proliferation of MDA-MB-436 cells (CellTiter-Glo); type: cell-based; details: Homo sapiens, MDA-MB-436, 168 h, 7 days incubation
How it was run: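 MDA-MB-436 cells seeded at 500-1000 cells/well, allowed to attach overnight, then treated with 9 concentrations from 10000 to 0.152 nM final (4-fold steps) in triplicate for 7 days at 37°C, 5% CO2. Viability by CellTiter-Glo luminescence; IC50 from fitted curve.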

[3] = Pharmacokinetics in mice after intravenous injection or gavage; details: BALB/c, mouse, plasma
Experimental: as §1, §2

[4] = Pharmacokinetics in SD rats after intravenous injection or gavage; details: rat, plasma
Experimental: as §1, §2, §3

PARP1 = PARP1 (Homo sapiens, UniProt P09874); experiment: Inhibition of PARP1 enzyme activity (ELISA, chemiluminescence); type: biochemical; details: for IC50: ELISA, histone-coated plate, NAD+, 60 min at 25 °C; for Selectivity PARP2/PARP1: ratio of PARP2 IC50 to PARP1 IC50
Experimental: Experimental Objective: To evaluate the inhibitory effect of the compounds of the present invention on the enzyme activities of PARP1 and PARP2 using ELISA.
• 1. histone-coated 384-well plates was prepared: 25 µL of histone solution was added to each well and incubated overnight at 4 °C. • 2. PBST buffer, blocking buffer (PBS buffer with 5% BSA and 0.05% Tween-20 added) and detection buffer (20 mM HEPES pH 7.5 + 100 mM NaCl + 2 mM DTT + 0.002% Tween-20 + 0.1% BSA) were prepared. • 3. The histone-coated 3 84-well plate was washed three times with PBST buffer, blocked at room temperature with 50 µL blocking buffer for 1 hour, and then washed three times with PBST buffer. • 4. Test compounds were prepared as 2000-fold stock solutions in DMSO. 50 nL of the stock solution was mixed with 19.95 µL detection buffer, and 5 µL of the gradient-diluted test compound was transferred to each well. • 5. Enzymatic reaction (PARP1): PARP1 & DNA mix was pre-incubated at 25 °C for 10 minutes. 10 µL of the PARP1 & DNA mix was added to each well and incubated with the test compound at room temperature for 10 minutes. […] Finally, the 384-well plate was washed three times with PBST buffer. Enzymatic reaction (PARP2): PARP2 was pre-incubated at 25 °C for 10 minutes. 10 µL of PARP2 was added to each well and incubated with the test compound at room temperature for 10 minutes. […] Finally, the 384-well plate was washed three times with PBST buffer. • 6. Detection (PARP1): 20 µL of anti-Poly/Mono-ADP Ribose Rabbit mAb was added and incubated at room temperature for 1.5 hours, followed by three washes of the 384-well plate with PBST buffer. Then, 20 µL of diluted anti-rabbit IgG, HRP-linked Antibody (diluted 1:2000 in blocking buffer) was added and incubated at room temperature for 1 hour. After washing the plate three times with PBST buffer, 25 µL of a 1:1 mixture of Femto-ECL Substrate A and Femto-ECL Substrate B was added. Detection (PARP2): 25 µL of Strep-HRP was added and incubated at room temperature for 1 hour, followed by three washes of the 384-well plate with PBS buffer. Then, 25 µL of a 1:1 mixture of Femto-ECL Substrate A and Femto-ECL Substrate B was added. • 7. Chemiluminescence intensity was measured using an Envision multimode microplate reader. • 8. Data Processing
The inhibition rate was calculated in Excel using formula (1). inh% = (Max−Signal)/(Max−Min)*100 [formula]
The IC50 value was obtained by fitting the data in XL-Fit using formula (2). Y = bottom + (top−bottom)/(1+(IC50/X)*HillSlope); [formula] wherein Y is the inhibition percentage and X is the compound concentration.

PARP2 = PARP2 (Homo sapiens, UniProt Q9UGN5); experiment: biochemical;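 further: PARP2 enzyme ELISA on histone-coated plates, Strep-HRP detection with chemiluminescence read-out, 10 min compound preincubation with enzyme, inhibition scaled between Max and Min signal controls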
Sequence of PARP2 (Q9UGN5 whole entry): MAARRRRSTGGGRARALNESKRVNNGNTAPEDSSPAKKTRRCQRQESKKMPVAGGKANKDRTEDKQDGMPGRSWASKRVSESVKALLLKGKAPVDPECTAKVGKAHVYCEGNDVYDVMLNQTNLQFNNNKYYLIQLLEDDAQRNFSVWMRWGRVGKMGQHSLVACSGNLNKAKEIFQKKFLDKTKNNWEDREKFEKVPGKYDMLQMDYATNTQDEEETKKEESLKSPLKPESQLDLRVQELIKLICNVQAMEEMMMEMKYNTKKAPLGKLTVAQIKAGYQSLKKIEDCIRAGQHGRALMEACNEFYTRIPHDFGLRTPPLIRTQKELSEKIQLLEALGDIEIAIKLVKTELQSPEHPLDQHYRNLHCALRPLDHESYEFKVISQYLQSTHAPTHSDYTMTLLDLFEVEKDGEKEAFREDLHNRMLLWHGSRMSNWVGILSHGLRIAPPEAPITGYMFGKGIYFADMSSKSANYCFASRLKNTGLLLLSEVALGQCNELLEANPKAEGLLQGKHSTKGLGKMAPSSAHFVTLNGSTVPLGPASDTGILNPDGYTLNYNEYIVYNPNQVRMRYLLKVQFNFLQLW

Sequence of PARP1 (P09874 whole entry): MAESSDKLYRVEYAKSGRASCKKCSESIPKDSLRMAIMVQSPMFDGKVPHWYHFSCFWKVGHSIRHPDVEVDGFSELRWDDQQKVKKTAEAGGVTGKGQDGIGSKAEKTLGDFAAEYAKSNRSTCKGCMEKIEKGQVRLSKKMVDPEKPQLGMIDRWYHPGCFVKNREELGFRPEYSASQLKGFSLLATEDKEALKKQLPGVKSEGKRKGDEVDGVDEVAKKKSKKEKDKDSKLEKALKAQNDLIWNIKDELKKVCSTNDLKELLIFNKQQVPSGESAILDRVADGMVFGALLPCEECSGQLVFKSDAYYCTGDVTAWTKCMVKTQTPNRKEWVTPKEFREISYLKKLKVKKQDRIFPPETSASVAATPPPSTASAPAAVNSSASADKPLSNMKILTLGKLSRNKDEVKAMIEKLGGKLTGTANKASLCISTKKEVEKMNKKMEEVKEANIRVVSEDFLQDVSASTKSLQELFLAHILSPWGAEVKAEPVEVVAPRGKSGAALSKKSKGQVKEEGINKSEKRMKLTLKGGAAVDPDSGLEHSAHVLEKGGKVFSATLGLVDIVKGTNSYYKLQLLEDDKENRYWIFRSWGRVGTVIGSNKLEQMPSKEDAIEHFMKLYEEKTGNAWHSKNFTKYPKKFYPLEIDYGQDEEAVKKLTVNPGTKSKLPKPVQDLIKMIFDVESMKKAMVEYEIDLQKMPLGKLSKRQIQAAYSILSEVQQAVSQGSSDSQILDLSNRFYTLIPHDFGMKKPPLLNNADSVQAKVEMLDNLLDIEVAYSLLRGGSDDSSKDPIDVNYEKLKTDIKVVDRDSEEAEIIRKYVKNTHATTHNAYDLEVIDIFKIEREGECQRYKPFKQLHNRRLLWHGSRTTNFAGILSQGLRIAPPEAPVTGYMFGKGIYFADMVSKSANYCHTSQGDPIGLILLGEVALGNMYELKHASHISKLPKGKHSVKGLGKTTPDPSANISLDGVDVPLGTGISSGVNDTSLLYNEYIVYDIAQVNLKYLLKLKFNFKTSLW

IC50 (DLD-1 BRCA2(-/-) cells) [nM]	IC50 (MDA-MB-436 cells) [nM]	AUC(0-t) ([3]; iv, 2 mg/kg) [ng·h/mL]	Cmax ([3]; iv, 2 mg/kg) [ng/mL]	half-life ([3]; iv, 2 mg/kg) [h]	AUC(0-t) ([3]; po, 5 mg/kg) [ng·h/mL]	Cmax ([3]; po, 5 mg/kg) [ng/mL]	half-life ([3]; po, 5 mg/kg) [h]	AUC(0-t) ([4]; iv, 1 mg/kg) [ng·h/mL]	Cmax ([4]; iv, 1 mg/kg) [ng/mL]	half-life ([4]; iv, 1 mg/kg) [h]	AUC(0-t) ([4]; po, 5 mg/kg) [ng·h/mL]	Cmax ([4]; po, 5 mg/kg) [ng/mL]	half-life ([4]; po, 5 mg/kg) [h]	IC50 (PARP1) [nM]	Selectivity PARP2/PARP1 (PARP1)	IC50 (PARP2) [nM]	Compound	other results
37.4	11.8	2230	3150	1.3	4630	2720	1.9	1670	1720	2.1	7870	3130	2.8	3.1	3254.4	> 10000	CC#Cc1cc(CN2CC=C(c3ccc(C(=O)NC4CC4)nc3F)CC2)c(F)c2[nH]c(=O)c(C)nc12 [Example 41, N-cyclopropyl-2-fluoro-1'-((5-fluoro-2-methyl-3-oxo-8-(prop-1-yn-1-yl)-3,4-dihydroquinoxalin-6-yl)methyl)-1',2',3',6'-tetrahydro-[3,4'-bipyridine]-6-carboxamide]	–
3.2	0.2	11300	6460	1.6	25300	8750	2	4500	1410	3.2	21200	2150	3.4	2.5	25.0	64	Cc1nc2c(OC(F)F)cc(CN3CCN(c4ccc(C(=O)NC5CC5)nc4F)CC3)cc2[nH]c1=O [Example 46, N-cyclopropyl-5-(4-((8-(ditluoromethoxy)-2-methyl-3-oxo-3,4-dihydroquinoxalin-6-yl)methyl)piperazin-1-yl)-6-fluoropicolinamide]	–

Compound	IC50 (DLD-1 BRCA2(-/-) cells) [nM]	IC50 (MDA-MB-436 cells) [nM]	AUC(0-t) ([3]; iv, 2 mg/kg) [ng·h/mL]	Cmax ([3]; iv, 2 mg/kg) [ng/mL]	half-life ([3]; iv, 2 mg/kg) [h]	AUC(0-t) ([3]; po, 5 mg/kg) [ng·h/mL]	Cmax ([3]; po, 5 mg/kg) [ng/mL]	half-life ([3]; po, 5 mg/kg) [h]	AUC(0-t) ([4]; iv, 1 mg/kg) [ng·h/mL]	Cmax ([4]; iv, 1 mg/kg) [ng/mL]	half-life ([4]; iv, 1 mg/kg) [h]	AUC(0-t) ([4]; po, 5 mg/kg) [ng·h/mL]	Cmax ([4]; po, 5 mg/kg) [ng/mL]	half-life ([4]; po, 5 mg/kg) [h]	IC50 (PARP1) [nM]	Selectivity PARP2/PARP1 (PARP1)	IC50 (PARP2) [nM]	other results
CC#Cc1cc(CN2CC=C(c3ccc(C(=O)NC)nc3F)CC2)cc2[nH]c(=O)c(C)nc12 [Example 12, 2-fluoro-N-methyl-1'-((2-methyl-3-oxo-8-(prop-1-yn-1-yl)-3,4-dihydroquinoxalin-6-yl)methyl)-1',2',3',6'-tetrahydro-[3,4'-bipyridine]-6-carboxamide]	1.9	0.6	–	–	–	–	–	–	–	–	–	–	–	–	–	–	–	AUC(0-t) (in vivo [1]; iv, 1 mg/kg): 1260 ng·h/mL; Cmax (in vivo [1]; iv, 1 mg/kg): 897 ng/mL; half-life (in vivo [1]; iv, 1 mg/kg): 2 h; AUC(0-t) (in vivo [1]; po, 5 mg/kg): 3770 ng·h/mL; Cmax (in vivo [1]; po, 5 mg/kg): 922 ng/mL; half-life (in vivo [1]; po, 5 mg/kg): 2.4 h; AUC(0-t) (in vivo [2]; iv, 2 mg/kg): 1430 ng·h/mL; Cmax (in vivo [2]; iv, 2 mg/kg): 1630 ng/mL; half-life (in vivo [2]; iv, 2 mg/kg): 1.4 h; AUC(0-t) (in vivo [2]; po, 5 mg/kg): 4200 ng·h/mL; Cmax (in vivo [2]; po, 5 mg/kg): 2110 ng/mL; half-life (in vivo [2]; po, 5 mg/kg): 1.9 h
